Experimental data as given in patent US20170305943A1, “COMPOUNDS FOR THE TREATMENT OF BACTERIAL INFECTIONS” (priority 2014, published 2017).
In brackets after ≈: the same amount, converted by molar mass.

Tested on: Clostridium difficile (Isolate ID ATCC 9689)
Assay: Bacterial Assay: Determination of Antibacterial Activity (MIC, broth microdilution or agar dilution)
Type: cell-based
Details: Clostridioides difficile, ATCC9689, 48 h, read-out: C. difficile MIC Activity Range
Experimental: Bacterial Assay: Determination of Antibacterial Activity Compounds of the invention were tested for antimicrobial activity by susceptibility testing in liquid or on solid media. Minimum inhibitory concentrations (MICs) for compounds against each strain were determined by the broth microdilution or agar dilution method according to the guidelines of the Clinical Laboratories and Standards Institute, formerly the National Committee for Clinical Laboratory Standards (Clinical Laboratories and Standards Institute. Methods for Dilution Antimicrobial Susceptibility Tests for Bacteria That Grow Anaerobically; Approved Standard-Seventh Edition. Document M11-A7, CLSI, Wayne, Pa., 2007, Clinical Laboratories and Standards Institute). Briefly MICs were determined by visible inspection after 48 hours of growth in the presence of compounds, cultures were grown at 37° C. in anaerobic gas packs using reinforced clostridial medium supplemented with 0.1% defribrinated horse blood. The bacterial strains tested include C. difficile (Clostridium difficile (Isolate ID ATCC 9689)) (Table 2) and two drug resistant clinical isolates (Clostridium difficile (Isolate ID BI-9) and Clostridium difficile (Isolate ID 027-01) (Table 3).
MICs were determined to be within the activity ranges “A” activity≦1.01 μg/mL; “B” activity>1.0 μg/mL-4.0 μg/mL; “C” activity>4.0 μg/mL-16 μg/mL

Row | Compound | MIC
1 | Cn1ccc(CNC(=O)OCC(Oc2ccc(F)c(C(N)=O)c2F)c2nc(-c3ccc(C(F)(F)F)cc3)c(Br)o2)n1 (stereo not shown) [Compound 72, 2-{5-bromo-4-[4-(trifluoromethyl)phenyl]-1,3-oxazol-2-yl}-2-(3-carbamoyl-2,4-difluorophenoxy)ethyl [(1-methyl-1H-pyrazol-3-yl)methyl]carbamate] | < 1.01 mg/L
2 | Cn1nccc1CNC(=O)OCC(Oc1ccc(F)c(C(N)=O)c1F)c1nc(-c2ccc(C(F)(F)F)cc2)c(Br)o1 (stereo not shown) [Compound 73, 2-{5-bromo-4-[4-(trifluoromethyl)phenyl]-1,3-oxazol-2-yl}-2-(3-carbamoyl-2,4-difluorophenoxy)ethyl [(1-methyl-1H-pyrazo1-5-yl)methyl]carbamate] | < 1.01 mg/L
3 | CN(Cc1ccncn1)C(=O)OCC(Oc1ccc(F)c(C(N)=O)c1F)c1nc(-c2ccc(C(F)(F)F)cc2)c(Br)o1 (stereo not shown) [Compound 75, 2-{5-bromo-4-[4-(trifluoromethyl)phenyl]-1,3-oxazol-2-yl}-2-(3-carbamoyl-2,4-difluorophenoxy)ethyl methyl(pyrimidin-4-ylmethyl)carbamate] | 1 to 4 mg/L (≈ 1.52 to 6.09 µM)
4 | Cn1cc(CNC(=O)OCC(Oc2ccc(F)c(C(N)=O)c2F)c2nc(-c3ccc(C(F)(F)F)cc3)c(Br)o2)cn1 (stereo not shown) [Compound 76, 2-{5-bromo-4-[4-(trifluoromethyl)phenyl]-1,3-oxazol-2-yl}-2-(3-carbamoyl-2,4-difluorophenoxy)ethyl [(1-methyl-1H-pyrazol-4-yl)methyl]carbamate] | < 1.01 mg/L
5 | Cc1cccc(CNC(=O)OCC(Oc2ccc(F)c(C(N)=O)c2F)c2nc(-c3ccc(C(F)(F)F)cc3)c(Br)o2)n1 (stereo not shown) [Compound 77, 2-{5-bromo-4-[4-(trifluoromethyl)phenyl]-1,3-oxazol-2-yl}-2-(3-carbamoyl-2,4-difluorophenoxy)ethyl [(6-methylpyridin-2-yl)methyl]carbamate] | 1 to 4 mg/L (≈ 1.53 to 6.1 µM)
6 | Cc1cc(CNC(=O)OCC(Oc2ccc(F)c(C(N)=O)c2F)c2nc(-c3ccc(C(F)(F)F)cc3)c(Br)o2)ccn1 (stereo not shown) [Compound 78, 2-{5-bromo-4-[4-(trifluoromethyl)phenyl]-1,3-oxazol-2-yl}-2-(3-carbamoyl-2,4-difluorophenoxy)ethyl [(2-methylpyridin-4-yl)methyl]carbamate] | < 1.01 mg/L
7 | Cn1ccnc1CNC(=O)OCC(Oc1ccc(F)c(C(N)=O)c1F)c1nc(-c2ccc(C(F)(F)F)cc2)c(Br)o1 (stereo not shown) [Compound 79, 2-{5-bromo-4-[4-(trifluoromethyl)phenyl]-1,3-oxazol-2-yl}-2-(3-carbamoyl-2,4-difluorophenoxy)ethyl [(1-methyl-1H-imidazol-2-yl)methyl]carbamate] | 4 to 16 mg/L (≈ 6.21 to 24.8 µM)
8 | Cc1nn(C)cc1CNC(=O)OCC(Oc1ccc(F)c(C(N)=O)c1F)c1nc(-c2ccc(C(F)(F)F)cc2)c(Br)o1 (stereo not shown) [Compound 81, 2-{5-bromo-4-[4-(trifluoromethyl)phenyl]-1,3-oxazol-2-yl}-2-(3-carbamoyl-2,4-difluorophenoxy)ethyl [(1,3-dimethyl-1H-pyrazol-4-yl)methyl]carbamate] | < 1.01 mg/L
9 | Cc1c(CNC(=O)OCC(Oc2ccc(F)c(C(N)=O)c2F)c2nc(-c3ccc(C(F)(F)F)cc3)c(Br)o2)cnn1C (stereo not shown) [Compound 82, 2-{5-bromo-4-[4-(trifluoromethyl)phenyl]-1,3-oxazol-2-yl}-2-(3-carbamoyl-2,4-difluorophenoxy)ethyl [(1,5-dimethyl-1H-pyrazol-4-yl)methyl]carbamate] | < 1.01 mg/L
10 | COc1ccc(CNC(=O)OCC(Oc2ccc(F)c(C(N)=O)c2F)c2nc(-c3ccc(C(F)(F)F)cc3)c(Br)o2)cn1 (stereo not shown) [Compound 83, 2-{5-bromo-4-[4-(trifluoromethyl)phenyl]-1,3-oxazol-2-yl}-2-(3-carbamoyl-2,4-difluorophenoxy)ethyl [(6-methoxypyridin-3-yl)methyl]carbamate] | < 1.01 mg/L
11 | COc1cc(CNC(=O)OCC(Oc2ccc(F)c(C(N)=O)c2F)c2nc(-c3ccc(C(F)(F)F)cc3)c(Br)o2)ccn1 (stereo not shown) [Compound 84, 2-{5-bromo-4-[4-(trifluoromethyl)phenyl]-1,3-oxazol-2-yl}-2-(3-carbamoyl-2,4-difluorophenoxy)ethyl [(2-methoxypyridin-4-yl)methyl]carbamate] | < 1.01 mg/L
12 | Cn1c(CNC(=O)OCC(Oc2ccc(F)c(C(N)=O)c2F)c2nc(-c3ccc(C(F)(F)F)cc3)c(Br)o2)nc2ccccc21 (stereo not shown) [Compound 85, 2-{5-bromo-4-[4-(trifluoromethyl)phenyl]-1,3-oxazol-2-yl}-2-(3-carbamoyl-2,4-difluorophenoxy)ethyl [(1-methyl-1H-benzimidazol-2-yl)methyl]carbamate] | 1 to 4 mg/L (≈ 1.44 to 5.76 µM)
13 | Cc1ccc(CNC(=O)OCC(Oc2ccc(F)c(C(N)=O)c2F)c2nc(-c3ccc(C(F)(F)F)cc3)c(Br)o2)n1C (stereo not shown) [Compound 86, 2-{5-bromo-4-[4-(trifluoromethyl)phenyl]-1,3-oxazol-2-yl}-2-(3-carbamoyl-2,4-difluorophenoxy)ethyl [(1,5-dimethyl-1H-pyrrol-2-yl)methyl]carbamate] | 1 to 4 mg/L (≈ 1.52 to 6.08 µM)
14 | Cc1cc(CNC(=O)OCC(Oc2ccc(F)c(C(N)=O)c2F)c2nc(-c3ccc(C(F)(F)F)cc3)c(Br)o2)n(C)n1 (stereo not shown) [Compound 87, 2-{5-bromo-4-[4-(trifluoromethyl)phenyl]-1,3-oxazol-2-yl}-2-(3-carbamoyl-2,4-difluorophenoxy)ethyl [(1,3-dimethyl-1H-pyrazol-5-yl)methyl]carbamate] | 1 to 4 mg/L (≈ 1.52 to 6.08 µM)
15 | Cc1cc(CNC(=O)OCC(Oc2ccc(F)c(C(N)=O)c2F)c2nc(-c3ccc(C(F)(F)F)cc3)c(Br)o2)nn1C (stereo not shown) [Compound 88, 2-{5-bromo-4-[4-(trifluoromethyl)phenyl]-1,3-oxazol-2-yl}-2-(3-carbamoyl-2,4-difluorophenoxy)ethyl [(1,5-dimethyl-1H-pyrazol-3-yl)methyl]carbamate] | 1 to 4 mg/L (≈ 1.52 to 6.08 µM)
16 | Cc1ccc(CNC(=O)OCC(Oc2ccc(F)c(C(N)=O)c2F)c2nc(-c3ccc(C(F)(F)F)cc3)c(Br)o2)cn1 (stereo not shown) [Compound 89, 2-{5-bromo-4-[4-(trifluoromethyl)phenyl]-1,3-oxazol-2-yl}-2-(3-carbamoyl-2,4-difluorophenoxy)ethyl [(6-methylpyridin-3-yl)methyl]carbamate] | < 1.01 mg/L
17 | Cc1ncccc1CNC(=O)OCC(Oc1ccc(F)c(C(N)=O)c1F)c1nc(-c2ccc(C(F)(F)F)cc2)c(Br)o1 (stereo not shown) [Compound 90, 2-{5-bromo-4-[4-(trifluoromethyl)phenyl]-1,3-oxazol-2-yl}-2-(3-carbamoyl-2,4-difluorophenoxy)ethyl [(2-methylpyridin-3-yl)methyl]carbamate] | < 1.01 mg/L
18 | Cc1cnccc1CNC(=O)OCC(Oc1ccc(F)c(C(N)=O)c1F)c1nc(-c2ccc(C(F)(F)F)cc2)c(Br)o1 (stereo not shown) [Compound 91, 2-{5-bromo-4-[4-(trifluoromethyl)phenyl]1,3-oxazol-2-yl}-2-(3-carbamoyl-2,4-difluorophenoxy)ethyl [(3-methylpyridin-4-yl)methyl]carbamate] | < 1.01 mg/L
19 | NC(=O)c1c(F)ccc(OC(COC(=O)NCCn2ccccc2=O)c2nc(-c3ccc(C(F)(F)F)cc3)c(Br)o2)c1F (stereo not shown) [Compound 92, 2-{5-bromo-4-[4-(trifluoromethyl)phenyl]-1,3-oxazol-2-yl}-2-(3-carbamoyl-2,4-difluorophenoxy)ethyl [2-(2-oxopyridin-1(2H)-yl)ethyl]carbamate] | 1 to 4 mg/L (≈ 1.49 to 5.96 µM)
20 | NC(=O)c1c(F)ccc(OC(CO)c2nc(-c3ccc(F)cc3F)c(Br)o2)c1F (stereo not shown) [Compound 99, 3-{1-[5-bromo-4-(2,4-difluorophenyl)-1,3-oxazol-2-yl]-2-hydroxyethoxy}-2,6-difluorobenzamide] | < 1.01 mg/L
21 | NC(=O)c1c(F)ccc(OC(CO)c2nc(-c3ccc(Br)s3)c(Br)o2)c1F (stereo not shown) [Compound 100, 3-{1-[5-bromo-4-(5-bromothiophen-2-yl)-1,3-oxazol-2-yl]-2-hydroxyethoxy}-2,6-difluorobenzamide] | 1 to 4 mg/L (≈ 1.91 to 7.63 µM)
22 | CNCNC(=O)c1c(F)ccc(OCc2nc3cc(Cl)cnc3s2)c1F [Compound 103] | 4 to 16 mg/L (≈ 10 to 40.1 µM)
23 | CCCCCCCCCOc1ccc(F)c(C(=N)N)c1F [Compound 107, 2,6-difluoro-3-(nonyloxy)benzenecarboximidamide] | 4 to 16 mg/L (≈ 13.4 to 53.6 µM)
24 | NC(=O)c1c(F)ccc(OCCCc2nc3cc(Cl)ccc3s2)c1F [Compound 109, 3-[3-(5-chloro-1,3-benzothiazol-2-yl)propoxy]-2,6-difluorobenzamide] | 1 to 4 mg/L (≈ 2.61 to 10.4 µM)
25 | NC(=O)c1c(F)ccc(OCCCc2nc(-c3ccc(C(F)(F)F)cc3)cs2)c1F [Compound 113, 2,6-difluoro-3-(3-{4-[4-(trifluoromethyl)phenyl]-1,3-thiazol-2-yl}propoxy)benzamide] | 1 to 4 mg/L (≈ 2.26 to 9.04 µM)
26 | NC(=O)c1c(F)ccc(OCCCc2nc(-c3ccc(OC(F)F)cc3)cs2)c1F [Compound 114, 3-(3-{4-[4-(difluoromethoxy)phenyl]-1,3-thiazol-2-yl}propoxy)-2,6-difluorobenzamide] | 1 to 4 mg/L (≈ 2.27 to 9.08 µM)
27 | NC(=O)c1c(F)ccc(OCCCc2nc(-c3ccc(OC(F)(F)F)cc3)cs2)c1F [Compound 115, 2,6-difluoro-3-(3-{4-[4-(trifluoromethoxy)phenyl]-1,3-thiazol-2-yl}propoxy)benzamide] | 1 to 4 mg/L (≈ 2.18 to 8.73 µM)
28 | NC(=O)c1c(F)ccc(OCCCc2nc(-c3ccc(S(F)(F)(F)(F)F)cc3)cs2)c1F [Compound 116, 2,6-difluoro-3-(3-{4-[4-(pentafluoro-lambda~6~- sulfanyl)phenyl]-1,3-thiazol-2-yl}propoxy)benzamide] | 1 to 4 mg/L (≈ 2 to 7.99 µM)
